Measured values reported in patent US20210230203A1, “Amphiphilic Kanamycin Compositions and Methods” (priority 2020, published 2021).
≈ marks a conversion by molar mass, not a printed value.

What was measured:
A. furnigatus = test: MIC against various species, CLSI M27 & M38 (Table 4); conditions: 24-72 hours
Candida albicans MYA2876 = test: MIC against fungal strains (Table 1); format: cell-based; conditions: Candida albicans MYA2876
P. variatii = test: MIC against filamentous and dimorphic fungi, CLSI M27 & M38 (Table 3); format: cell-based, Paecilomyces variotii; conditions: P. variatii MYA-3630, RPMI 0.165M MOPS, 24-72 hours
Cryptococcus neoformans = test: MIC against yeast, CLSI M27 & M38 (Table 2); conditions: 24-72 hours
E. coli (25922) = test: MIC against bacterial strains; format: cell-based
Rhodotorula pilimanae = test: MIC against fungal strains (Table 1); format: cell-based
Candida albicans 64124 = test: MIC against fungal strains (Table 1); format: cell-based
[1] = system: S. aureus (ATCC 33591) MRSA; format: cell-based
Fusarium = test: MIC against various species, CLSI M27 & M38 (Table 4); format: cell-based; conditions: 24-72 hours
Coccidioldes sp. = test: microbe, parasite or virus in culture; format: cell-based, Coccidioides species; conditions: Table 3, RPMI 0.165M MOPS, 24-72 hours
C. auris = test: MIC against various species, CLSI M27 & M38 (Table 4); conditions: 24-72 hours
[2] = A. furnigatus AF1, RPMI 0.165M MOPS
[3] = A. furnigatus AF2, RPMI 0.165M MOPS
[4] = A. furnigatus AF3, RPMI 0.165M MOPS
[5] = Cryptococcus neoformans CN1, RPMI 0.165M MOPS
[6] = Cryptococcus neoformans H99, RPMI 0.165M MOPS
[7] = Cryptococcus neoformans USC1597, RPMI 0.165M MOPS
[8] = C. auris DI17-46, RPMI 0.165M MOPS
[9] = C. auris DI17-47, RPMI 0.165M MOPS
[10] = C. auris DI17-48, RPMI 0.165M MOPS

CCCCCCCCCCCCCCCC(=O)NC[C@H]1O[C@H](O[C@H]2[C@H](O)[C@@H](O[C@H]3O[C@H](CO)[C@@H](O)[C@H](N)[C@H]3O)[C@H](N)C[C@@H]2N)[C@H](O)[C@@H](O)[C@@H]1O [KI06]
Minimum inhibitory concentration 50% (A. furnigatus; [2]): 8 µg/mL (≈ 11.1 µM)
Minimum inhibitory concentration 100% (A. furnigatus; [2]): 8 µg/mL (≈ 11.1 µM)
Minimum inhibitory concentration 50% (A. furnigatus; [3]): 32 µg/mL (≈ 44.3 µM)
Minimum inhibitory concentration 100% (A. furnigatus; [3]): 32 µg/mL (≈ 44.3 µM)
Minimum inhibitory concentration 50% (A. furnigatus; [4]): 8 µg/mL (≈ 11.1 µM)
Minimum inhibitory concentration 100% (A. furnigatus; [4]): 16 µg/mL (≈ 22.1 µM)
Minimum inhibitory concentration (Candida albicans MYA2876): 8 µg/mL (≈ 11.1 µM)
Minimum inhibitory concentration 50% (P. variatii): 8 µg/mL (≈ 11.1 µM)
Minimum inhibitory concentration 100% (P. variatii): 16 µg/mL (≈ 22.1 µM)
Minimum inhibitory concentration 50% (Cryptococcus neoformans; [5]): 4 µg/mL (≈ 5.53 µM)
Minimum inhibitory concentration 100% (Cryptococcus neoformans; [5]): 4 µg/mL (≈ 5.53 µM)
Minimum inhibitory concentration 50% (Cryptococcus neoformans; [6]): 4 µg/mL (≈ 5.53 µM)
Minimum inhibitory concentration 100% (Cryptococcus neoformans; [6]): 4 µg/mL (≈ 5.53 µM)
Minimum inhibitory concentration 50% (Cryptococcus neoformans; [7]): 4 µg/mL (≈ 5.53 µM)
Minimum inhibitory concentration 100% (Cryptococcus neoformans; [7]): 4 µg/mL (≈ 5.53 µM)
Minimum inhibitory concentration (E. coli (25922)): 32 µg/mL (≈ 44.3 µM)
Minimum inhibitory concentration (Rhodotorula pilimanae): 4 µg/mL (≈ 5.53 µM)
Minimum inhibitory concentration (Candida albicans 64124): 8 µg/mL (≈ 11.1 µM)
Minimum inhibitory concentration [1]: 16 µg/mL (≈ 22.1 µM)
Minimum inhibitory concentration 50% (Fusarium; Fusarium FO1, RPMI 0.165M MOPS): 8 µg/mL (≈ 11.1 µM)
Minimum inhibitory concentration 100% (Fusarium; Fusarium FO1, RPMI 0.165M MOPS): 8 µg/mL (≈ 11.1 µM)
Minimum inhibitory concentration 50% (Fusarium; Fusarium FO2, RPMI 0.165M MOPS): 4 µg/mL (≈ 5.53 µM)
Minimum inhibitory concentration 100% (Fusarium; Fusarium FO2, RPMI 0.165M MOPS): 8 µg/mL (≈ 11.1 µM)
Minimum inhibitory concentration 50% (Fusarium; Fusarium FS1, RPMI 0.165M MOPS): 4 µg/mL (≈ 5.53 µM)
Minimum inhibitory concentration 100% (Fusarium; Fusarium FS1, RPMI 0.165M MOPS): 8 µg/mL (≈ 11.1 µM)
Minimum inhibitory concentration 50% (Coccidioldes sp.; Coccidioldes sp. Cocci1): 4 µg/mL (≈ 5.53 µM)
Minimum inhibitory concentration 100% (Coccidioldes sp.; Coccidioldes sp. Cocci1): 8 µg/mL (≈ 11.1 µM)
Minimum inhibitory concentration 50% (Coccidioldes sp.; Coccidioldes sp. Cocci2): 4 µg/mL (≈ 5.53 µM)
Minimum inhibitory concentration 100% (Coccidioldes sp.; Coccidioldes sp. Cocci2): 8 µg/mL (≈ 11.1 µM)
Minimum inhibitory concentration 50% (Coccidioldes sp.; Coccidioldes sp. DI17-143): 4 µg/mL (≈ 5.53 µM)
Minimum inhibitory concentration 100% (Coccidioldes sp.; Coccidioldes sp. DI17-143): 8 µg/mL (≈ 11.1 µM)
Minimum inhibitory concentration 50% (C. auris; [8]): 4 µg/mL (≈ 5.53 µM)
Minimum inhibitory concentration 100% (C. auris; [8]): 8 µg/mL (≈ 11.1 µM)
Minimum inhibitory concentration 50% (C. auris; [9]): 2 µg/mL (≈ 2.77 µM)
Minimum inhibitory concentration 100% (C. auris; [9]): 4 µg/mL (≈ 5.53 µM)
Minimum inhibitory concentration 50% (C. auris; [10]): 1 µg/mL (≈ 1.38 µM)
Minimum inhibitory concentration 100% (C. auris; [10]): 4 µg/mL (≈ 5.53 µM)
